In US20210215714A1, “COMPLEMENT ALTERNATIVE PATHWAY-ASSOCIATED NEPHROPATHY BIOMARKERS” (Achillion Pharmaceuticals, Inc., priority 2018, published 2021):
“Also recorded” adds a separate entry of the source.

Test system: sC5b-9
Assay: Phase 2a study: urinary sC5b-9 (MicroVue sC5b-9 Enzyme Immunoassay);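 note: urine from C3 glomerulopathy or IC-MPGN patients, sandwich ELISA capturing sC5b-9 via C9-ring monoclonal with HRP detection read at 450 nm, values raw or normalized to creatinine or albumin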
Settings: for Urine sC5b-9 / sC5b-9/ALB / sC5b-9/Cr: 200 mg TID; for sC5b-9/ALB GEOMEAN / sC5b-9/ALB MEAN / sC5b-9/Cr MEAN / Urine sC5b-9 GEOMEAN / Urine sC5b-9 MEAN / sC5b-9/Cr GEOMEAN: patients A-F
Source text: 10 patients with either C3 Glomerulopathy (C3G) or Immune-Complex Membranoproliferative Glomerulonephritis (IC-MPGN) are to be enrolled across two dose groups. […] Inclusion criteria include a clinical diagnosis of C3G (C3 glomerulonephritis [C3GN] or dense deposit disease [DDD], the 2 types of C3G) or idiopathic immune-complex membranoproliferative glomerulonephritis (IC-MPGN) by renal biopsy for at least 3 months prior to dosing, with the pathologic diagnosis verified by review of the renal biopsy by the study central pathologist. Patients must have low C3 levels (<50% of the lower limit of normal) and normal or near-normal C4 levels (>90% of the lower limit of normal).
To measure urinary sC5b-9 production, patient urine samples were tested utilizing the MicroVue sC5b-9 Enzyme Immunoassay for the quantitation of sC5b-9 in urine. […] The samples were tested utilizing the MicroVue sC5b-9 Enzyme Immunoassay for the quantitation of sC5b-9 urine, which is a three-step procedure utilizing a micro-assay plate coated with a mouse monoclonal antibody that binds specifically to the C9 ring of sC5b-9, HRP-conjugated antibodies to antigens of sC5b-9, and a chromogenic substrate. In step 1, standards, controls, and test specimens are added to micro-assay wells pre-coated with an anti-sC5b-9 specific monoclonal antibody. sC5b-9 present in the Standards, Controls, or specimens will bind to the immobilized sC5b-9 monoclonal antibody. After incubation, a wash cycle removes unbound material. […] In step 2, horseradish peroxidase (HRP)-conjugated antibodies to antigens of sC5b-9 are added to each test well. The enzyme conjugated antibodies bind to sC5b-9 that was captured by the monoclonal anti-sC5b-9 bound on the surface of the micro-assay wells. After incubation, a wash cycle removes unbound, excess conjugate. In step 3, a chromogenic enzyme substrate is added to each micro-assay well. The bound HRP-conjugate reacts with the substrate, forming a blue color. After incubation the enzyme reaction is stopped chemically, the color changes to yellow, and the color intensity is measured spectrophotometrically at 450 nm. The color intensity of the reaction mixture is proportional to the concentration of sC5b-9 present in the test specimens, standards, and controls. […] Measurements of urinary biomarkers are typically normalized to urine creatinine or albumin levels to account for variation in biomarker levels due to changes in urinary filtration rate.

## CC(=O)c1nn(CC(=O)N2C[C@H](F)C[C@H]2C(=O)Nc2cccc(Br)n2)c2ccc(-c3cnc(C)nc3)cc12 [Compound 1, (2S,4R)-1-(2-(3-acetyl-5-(2-methylpyrimidin-5-yl)-1H-indazol-1-yl)acetyl)-N-(6-bromopyridin-2-yl)-4-fluoropyrrolidine-2-carboxamide]
Patient D, Day 21 Taper
  Urine sC5b-9: 44.0 ng/mL
  sC5b-9/ALB: 18 ng/mg
  sC5b-9/Cr: 10.5 µg/mmol
Patient D, Follow-Up Day 24
  Urine sC5b-9: 39.9 ng/mL
  sC5b-9/ALB: 21 ng/mg
  sC5b-9/Cr: 5.9 µg/mmol
Patient D, Follow-Up Day 28
  Urine sC5b-9: 57.8 ng/mL
  sC5b-9/ALB: 21 ng/mg
  sC5b-9/Cr: 12.0 µg/mmol
Patient D, Follow-Up Day 49
  Urine sC5b-9: 40.3 ng/mL
  sC5b-9/ALB: 16 ng/mg
  sC5b-9/Cr: 10.3 µg/mmol
Patient D, Screen
  Urine sC5b-9: 148.7 ng/mL
  sC5b-9/ALB: 34 ng/mg
  sC5b-9/Cr: 19.6 µg/mmol
Patient E, Day 1/0 Hour
  sC5b-9/ALB: 127 ng/mg
  sC5b-9/Cr: 54.0 µg/mmol
Patient E, Day 1 predose
  Urine sC5b-9: 959 ng/mL
Patient E, Day 4
  Urine sC5b-9: 538 ng/mL
  sC5b-9/ALB: 61 ng/mg
Patient E, Day 7
  Urine sC5b-9: 484 ng/mL
Patient E, Day 7/0 Hour
  sC5b-9/ALB: 59 ng/mg
  sC5b-9/Cr: 31.5 µg/mmol
Patient E, Day 10
  Urine sC5b-9: 212 ng/mL
  sC5b-9/ALB: 26 ng/mg
  sC5b-9/Cr: 16.1 µg/mmol
Patient E, Day 14
  Urine sC5b-9: 112 ng/mL
  sC5b-9/ALB: 19 ng/mg
  sC5b-9/Cr: 5.0 µg/mmol
Patient E, Day 15 Taper
  Urine sC5b-9: 70 ng/mL
  sC5b-9/ALB: 23 ng/mg
  sC5b-9/Cr: 7.5 µg/mmol
Patient E, Day 16 Taper
  Urine sC5b-9: 42 ng/mL
  sC5b-9/ALB: 15 ng/mg
  sC5b-9/Cr: 4.2 µg/mmol
Patient E, Day 17 Taper
  Urine sC5b-9: 74 ng/mL
  sC5b-9/ALB: 20 ng/mg
  sC5b-9/Cr: 9.4 µg/mmol
Patient E, Day 21 Taper
  Urine sC5b-9: 97 ng/mL
  sC5b-9/ALB: 50 ng/mg
  sC5b-9/Cr: 12.7 µg/mmol
Patient E, Follow-Up Day 24
  Urine sC5b-9: 188 ng/mL
  sC5b-9/ALB: 50 ng/mg
  sC5b-9/Cr: 15.1 µg/mmol
Patient E, Follow-Up Day 28
  Urine sC5b-9: 141 ng/mL
  sC5b-9/ALB: 28 ng/mg
  sC5b-9/Cr: 8.5 µg/mmol
Patient E, Follow-Up Day 49
  Urine sC5b-9: 217 ng/mL
  sC5b-9/ALB: 42 ng/mg
Patient F, Day 1/0 Hour
  sC5b-9/ALB: 120 ng/mg
  sC5b-9/Cr: 35.2 µg/mmol
Patient F, Day 1 predose
  Urine sC5b-9: 348 ng/mL
Patient F, Day 4
  Urine sC5b-9: 43 ng/mL
  sC5b-9/ALB: 58 ng/mg
  sC5b-9/Cr: 8.8 µg/mmol
Patient F, Day 7
  Urine sC5b-9: 54 ng/mL
Patient F, Day 7/0 Hour
  sC5b-9/ALB: 147 ng/mg
  sC5b-9/Cr: 13.9 µg/mmol
Patient F, Day 10
  Urine sC5b-9: 34 ng/mL
Patient F, Day 14
  Urine sC5b-9: 62 ng/mL
  sC5b-9/ALB: 37 ng/mg
  sC5b-9/Cr: 6.7 µg/mmol
Patient F, Day 15 Taper
  Urine sC5b-9: 35 ng/mL
  sC5b-9/ALB: 8 ng/mg
  sC5b-9/Cr: 5.8 µg/mmol
Patient F, Day 16 Taper
  Urine sC5b-9: 25 ng/mL
  sC5b-9/ALB: 30 ng/mg
  sC5b-9/Cr: 7.0 µg/mmol
Patient F, Day 17 Taper
  Urine sC5b-9: 55 ng/mL
  sC5b-9/ALB: 12 ng/mg
  sC5b-9/Cr: 5.9 µg/mmol
Patient F, Day 21 Taper
  Urine sC5b-9: 104 ng/mL
  sC5b-9/ALB: 24 ng/mg
  sC5b-9/Cr: 8.2 µg/mmol
Patient F, Follow-Up Day 24
  Urine sC5b-9: 51 ng/mL
  sC5b-9/ALB: 34 ng/mg
  sC5b-9/Cr: 9.5 µg/mmol
Patient F, Follow-Up Day 28
  Urine sC5b-9: 65 ng/mL
  sC5b-9/ALB: 57 ng/mg
  sC5b-9/Cr: 14.4 µg/mmol
Patient F, Follow-Up Day 49
  Urine sC5b-9: 180 ng/mL
  sC5b-9/ALB: 59 ng/mg
  sC5b-9/Cr: 33.2 µg/mmol
Day 1/0 Hour
  sC5b-9/ALB GEOMEAN: 125.0 ng/mg
  sC5b-9/ALB MEAN: 335.0 ng/mg
  sC5b-9/Cr MEAN: 163.6 µg/mmol
Day 1 predose
  Urine sC5b-9 GEOMEAN: 210 ng/mL
  Urine sC5b-9 MEAN: 1120 ng/mL
Day 4
  Urine sC5b-9 GEOMEAN: 94 ng/mL
  Urine sC5b-9 MEAN: 472 ng/mL
  sC5b-9/ALB GEOMEAN: 80.6 ng/mg
  sC5b-9/ALB MEAN: 165.3 ng/mg
  sC5b-9/Cr GEOMEAN: 14.0 µg/mmol
  sC5b-9/Cr MEAN: 37.0 µg/mmol
Day 7
  Urine sC5b-9 GEOMEAN: 91 ng/mL
  Urine sC5b-9 MEAN: 483 ng/mL
Day 7/0 Hour
  sC5b-9/ALB GEOMEAN: 102.8 ng/mg
  sC5b-9/ALB MEAN: 171.5 ng/mg
  sC5b-9/Cr GEOMEAN: 17.1 µg/mmol
  sC5b-9/Cr MEAN: 38.0 µg/mmol
Day 10
  Urine sC5b-9 GEOMEAN: 56 ng/mL
  Urine sC5b-9 MEAN: 231 ng/mL
Day 15 Taper
  Urine sC5b-9 GEOMEAN: 66 ng/mL
  Urine sC5b-9 MEAN: 588 ng/mL
  sC5b-9/ALB GEOMEAN: 48.2 ng/mg
  sC5b-9/ALB MEAN: 192.6 ng/mg
  sC5b-9/Cr GEOMEAN: 11.9 µg/mmol
  sC5b-9/Cr MEAN: 55.8 µg/mmol
Day 17 Taper
  Urine sC5b-9 GEOMEAN: 71 ng/mL
  Urine sC5b-9 MEAN: 488 ng/mL
  sC5b-9/ALB GEOMEAN: 51.5 ng/mg
  sC5b-9/ALB MEAN: 191.3 ng/mg
  sC5b-9/Cr GEOMEAN: 11.6 µg/mmol
  sC5b-9/Cr MEAN: 45.3 µg/mmol
Day 21 Taper
  Urine sC5b-9 GEOMEAN: 99 ng/mL
  Urine sC5b-9 MEAN: 468 ng/mL
  sC5b-9/ALB GEOMEAN: 76.3 ng/mg
  sC5b-9/ALB MEAN: 190.1 ng/mg
  sC5b-9/Cr GEOMEAN: 15.2 µg/mmol
  sC5b-9/Cr MEAN: 58.3 µg/mmol
Follow-Up Day 24
  Urine sC5b-9 GEOMEAN: 108 ng/mL
  Urine sC5b-9 MEAN: 724 ng/mL
  sC5b-9/ALB GEOMEAN: 92.3 ng/mg
  sC5b-9/ALB MEAN: 289.8 ng/mg
  sC5b-9/Cr GEOMEAN: 17.8 µg/mmol
  sC5b-9/Cr MEAN: 115.8 µg/mmol
Follow-Up Day 28
  Urine sC5b-9 GEOMEAN: 113 ng/mL
  Urine sC5b-9 MEAN: 457 ng/mL
  sC5b-9/ALB GEOMEAN: 80.5 ng/mg
  sC5b-9/ALB MEAN: 200.5 ng/mg
  sC5b-9/Cr MEAN: 64.2 µg/mmol
Follow-Up Day 49
  Urine sC5b-9 GEOMEAN: 162 ng/mL
  Urine sC5b-9 MEAN: 2440 ng/mL
  sC5b-9/ALB GEOMEAN: 123.3 ng/mg
  sC5b-9/ALB MEAN: 1111.7 ng/mg
  sC5b-9/Cr GEOMEAN: 23.5 µg/mmol
  sC5b-9/Cr MEAN: 159.5 µg/mmol
two-week treatment
  Urinary sC5b-9 levels: reduced significantly; also recorded: reduced in all patients
  Urinary sC5b-9 levels normalized to urinary creatinine or albumin: reduced significantly
